Test results taken from PMC6627553, “Cardiac Rhythm and Molecular Docking Studies of Ion Channel Ligands with Cardiotoxicity in Zebrafish” (Cells, 2019).
Entries after “also recorded” stand apart in the source; their conditions may differ. Structures can show the parent of a compound that is named as a salt. Where two headings read alike, the source gives them in different places.

What was measured:
[1] = test system: zebrafish embryos aged 72 hpf; test: Chronology method: heart beat recorded at 5 min intervals over 30 min; settings: 10 μM; for Cardiac phenotype by time chronology method: 10 sec recordings at 5 min intervals over 30 min, methylcellulose mounted; for Atrium and ventricle rhythmicity pattern after 30 min incubation: compared to control
Procedure: (§1) Stock concentrations for each compound in the library are 10 mM with 100 µL volume. The compounds are diluted with distilled water to make working solutions at 10 µM. For drug treatment, 20 µM of the compound stock was dropped onto the fish mounted with the same volume (around 50 µL) of 3% methylcellulose for a final working concentration of 10 µM. The heart beats from three zebrafish larvae were used for the first round of screening. […] The heart beats from five zebrafish larvae for each compound were recorded for 10 sec at 5 min intervals over a period of 30 min.
(§2) After drug administration, we video recorded the heart beat for 10 sec at 5 min intervals, over a period of 30 min.

[2] = test system: zebrafish embryos aged 72 hpf; test: End-point screen of ion channel ligand library for cardiac rhythm (ImageJ-based); settings: 10 μM, 30 min incubation
Procedure: Seventy-two hpf larvae were used for this study.
The compounds are diluted with distilled water to make working solutions at 10 µM. For drug treatment, 20 µM of the compound stock was dropped onto the fish mounted with the same volume (around 50 µL) of 3% methylcellulose for a final working concentration of 10 µM. The heart beats from three zebrafish larvae were used for the first round of screening. […] The heart beats from five zebrafish larvae for each compound were recorded for 10 sec at 5 min intervals over a period of 30 min.
For the cardiac rhythm assay, we mounted zebrafish embryos aged at 72 hpf with 3% methylcellulose to reduce their movement, and later applied chemicals from an ion channel ligand library (containing 70 compounds) at 10 μM to measure the changes in cardiac rhythm according to our previous ImageJ-based method [25]. In order to prevent the potential side effects of anesthesia on heart rate or rhythmicity, we used methylcellulose to mount zebrafish larvae for videotaping.
Initially, we used an image-based end-point method to screen the potential effects of an ion channel ligand library on heart beat rhythm alterations. […] In order to screen a potential compound with high cardiotoxicity at a low dose, we performed chemical screening at 10 μM as a starting point. […] A heartbeat that exceeds these ranges is considered abnormal.

rats = settings: cited from earlier work
[3] = test system: zebrafish embryos aged 72 hpf; test: Dose response experiment for lowest effective dose (LOED), time chronology method; settings: 1 µM and 5 µM
Procedure: Three different doses, 1, 5 and 10 μM, of the tested compounds were given to zebrafish embryos aged 72 hpf, and the heart beat rate and rhythmicity were recorded for comparison by the time chronology method.
(§3) Five zebrafish larvae aged at 72 h post-fertilization (hpf) were used in this assay.

cardiac K+ channels = settings: cited from earlier work
[4] = test system: zebrafish embryos aged 72 hpf; settings: in vivo
Procedure: as §1, §2

hERG channel = settings: cited from earlier work
[5] = test system: zebrafish larvae aged 72 hpf; test: Washout experiment for heart rate and rhythmicity; settings: washout for 30 min and 1 h
Procedure: as §3

Compound | Cardiac phenotype by time chronology method [1] | Atrium and ventricle rhythmicity pattern after 30 min incubation [1] | Heart rhythm phenotype in first step screening (end-point screen) [2] | other results
O=C1NCN(c2ccccc2)C12CCN(CCCC(c1ccc(F)cc1)c1ccc(F)cc1)CC2 [compound 1377, Fluspirilene] | arrhythmia from 5 min onwards | arrhythmic, with one peak of the ventricle being followed by two of the atrium | ventricular fibrillation or total heart stop; also recorded: irregular heart rhythmicity; also recorded: total heart stop | Cardiac phenotype by time chronology method ([1]; listed as fluspirilene): arrhythmia occurred from 5 min onwards and became more severe over time; Heart rhythm phenotype in first step screening (end-point screen) ([2]; listed as fluspirilene): heart completely stopped
CNc1ccc2oc(C[C@H]3O[C@@]4(CC[C@H]3C)O[C@H]([C@H](C)C(=O)c3ccc[nH]3)[C@H](C)C[C@H]4C)nc2c1C(=O)O [compound 1333, Antibiotic A-23187] |  | 1:1 rhythm, but the peak was more compact | ventricular fibrillation or total heart stop; also recorded: irregular heart rhythmicity | Heart rhythm phenotype in first step screening (end-point screen) ([2]; listed as Antibiotic A-23187): ventricular fibrillation; Increase of heart beat (rats): up to 50%
COC(=O)c1c(C)[nH]c(C)c1C(=O)c1ccccc1Cc1ccccc1 [compound 1346, FPL-64176] | arrhythmia | arrhythmic beating | ventricular fibrillation or total heart stop; also recorded: irregular heart rhythmicity | Heart rhythm phenotype in first step screening (end-point screen) ([2]; listed as FPL-64176): heart completely stopped; Effect on cardiac rhythmicity at low concentration [3]: did not change; Effect on heart beat rate at low concentration [3]: did not change the heart beat rate
Fc1ccc(C(c2ccc(F)cc2)N2CCN(C/C=C/c3ccccc3)CC2)cc1 [compound 1345, Flunarizine hydrochloride] | slowing of heart rate as well as arrhythmia after incubation for 25 and 30 min; also recorded: slowing of the heart as well as arrhythmia after incubation for 25 and 30 min | arryhtmia was not shown in the pattern; however, the peak was less compact compared to the control | slight slowing of the heartbeat (bradycardia); also recorded: irregular heart rhythmicity | 
O=c1[nH]c2ccccc2n1C1CCN(CCCC(c2ccc(F)cc2)c2ccc(F)cc2)CC1 [compound 1360, Pimozide] | atrioventricular block occurred, subsequently becoming more severe over time | arrhythmic, with one peak in the ventricle being followed by two in the atrium | ventricular fibrillation or total heart stop; also recorded: irregular heart rhythmicity | Reported cardiac adverse effect (cardiac K+ channels): acquired long QT syndrome and ventricle arrhythmia; Reversibility of cardiotoxicity effect (cardiac K+ channels): poorly reversible; Cardiac phenotype by time chronology method [4]: atrioventricular block from 10 min onwards; Concentration giving significant inhibition of hERG channel currents (hERG channel; as low as): 3 nM; IC50 (hERG channel; read-out: IC50 of hERG channel currents): 18 nM; Restoration of heart rate after washout [5]: could not be fully restored, even after 1 h of washout treatment; Reversal of arrhythmic effect after washout [5]: unable to fully reverse the arrhythmic effect
